23 molecules from PubChem BioAssay (NCI) can be followed below.

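Assay format: 96-well plates, 48-hour exposure. At the GI50, growth is halved. Definition used: TGI = concentration required for complete inhibition of growth.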 Where a SMILES comes first, the peptide text is derived from it. The star is where a group is joined. Boc = CC(C)(C)OC(=O)*; OBn = c1ccc(CO*)cc1; Bn = c1ccc(C*)cc1 Where only a bound is given, the exact number is not on record here.

What all share (experiment): NCI tumour cell line growth inhibition, 48 h
Experiment [1] deals with DU-145 prostate.
In experiment [2] the test system is MDA-MB-231 breast.
Experiment [3] has as its system MDA-N.
Experiment [4] deals with SF-295 CNS.
Experiment [5] deals with SK-MEL-2 melanoma.
Experiment [6] deals with SK-MEL-28 melanoma.
The test system of experiment [7] is SK-OV-3 ovarian.
Experiment [8] concerns SNB-19 CNS.
In experiment [9] the test system is NCI-H226 lung.
Experiment [10] relates to RXF 393 renal.

With `O=c1[nH]c(=O)n(COCCO)cc1-c1ccccc1`, the TGI in [1], in [2], in experiment [3], in experiment [4], in [5] and in [6] was more than 100 µM each time. The TGI in [7] and in experiment [8] was more than 100 µM throughout.
In the case of `CC1(C)OC2C(CO)OC(/N=C(\NC#N)Oc3ccccc3)C2O1` (stereo not given), the TGI in [9], in experiment [10], in experiment [4], in experiment [6], in [7] and in [8] was more than 100 µM each time.
In the case of `c1ccc(C[P+]2(c3ccccc3)CCCCC2)cc1`, the TGI in experiment [9], in [10], in [4], in [5], in experiment [6] and in [7] was more than 100 µM throughout. This molecule also returned a TGI in experiment [8] of more than 100 µM.
For `NCCCCN(CCCN)C(=O)OCc1ccccc1`, the TGI in [1], in experiment [2], in [9], in experiment [10], in experiment [4] and in experiment [5] was more than 100 µM in each case. For the same molecule, the TGI in [6], in experiment [7] and in [8] was more than 100 µM in each case.
As to `O=C(/C=C/c1ccco1)c1ccc(Nc2ccnc3cc(Cl)ccc23)cc1`, the GI50 in [1] is 9.33 µM; in [2], 12.8 µM; in experiment [9], more than 100 µM; in experiment [10], 20.9 µM; in experiment [4] it was more than 100 µM; in experiment [5], 76.7 µM. Further, the GI50 was 74.9 µM in [6], more than 100 µM in experiment [7] and more than 100 µM in experiment [8]. Moreover, the TGI in experiment [1] is more than 100 µM; in [2], 34.7 µM; in [9], more than 100 µM; in experiment [10], more than 100 µM; in [4] it was more than 100 µM; in [5], more than 100 µM. Further, the TGI in experiment [6], in [7] and in [8] was more than 100 µM throughout.
Regarding `O=C1CCCc2ccc3c(c21)CC1(Cc2cc4c(cc2C1)CCCC4)C3`, the TGI in experiment [1] was more than 100 µM; in experiment [2], 38.2 µM; in experiment [9] it was 93.3 µM; in experiment [10], 32 µM; in experiment [4], 75.7 µM; in experiment [5], 48.9 µM. Besides, the TGI in experiment [6] was 63.7 µM; in experiment [7], more than 100 µM; in experiment [8] it was 91.7 µM.
Regarding `O=C1CCCn2c3ccccc3c3ccnc1c32`, the TGI in experiment [9] was 56.4 µM; in [10], 68.8 µM; in experiment [4], more than 100 µM; in [5], more than 100 µM; in experiment [6], more than 100 µM; in experiment [7] it was more than 100 µM. This molecule had a TGI in experiment [8] of more than 100 µM.
Regarding `O=C(CSCC(=O)N/N=C/c1ccc(F)cc1)N/N=C/c1ccc(F)cc1`, the TGI in experiment [1], in experiment [2], in experiment [9], in experiment [10], in experiment [5] and in experiment [6] was more than 100 µM each time. The TGI in experiment [7] and in experiment [8] was more than 100 µM in each case.
As for `C=CCn1c(-c2ccc(N=NNc3ccc(-c4n[nH]c(=S)n4CC=C)cc3)cc2)n[nH]c1=S`, the TGI in [1] was 16 µM; in [2] it was more than 100 µM; in [9], 6.13 µM; in [10], 37.8 µM; in experiment [4], 15.7 µM; in experiment [6], more than 100 µM. The TGI is 25.3 µM in [7] and more than 100 µM in [8].
Consider `CSCC[C@@H](NC(=O)[C@H](CC(C)C)NC(=O)C(Cc1cnc[nH]1)NC(=O)CNC(=O)[C@@H](NC(=O)[C@H](C)NC(=O)[C@H](Cc1cn(C=O)c2ccccc12)NC(=O)[C@H](CCC(N)=O)NC(=O)[C@@H](N)CC(N)=O)C(C)C)C(N)=O` (stereo not given in full), for which the TGI in [9], in experiment [10], in experiment [4], in [5], in experiment [6] and in [7] was more than 100 µM throughout. Besides, in experiment [8], the TGI was more than 100 µM.
For `COC12OC3(C4OC41)C(C(=O)O[C@H]3CO[Si](C)(C)C(C)(C)C)C2S(=O)(=O)c1ccccc1` (stereo not given in full), the TGI in experiment [1] is more than 6.06 µM; in experiment [2], more than 7.32 µM; in [9] it was more than 100 µM; in experiment [4], more than 100 µM; in experiment [5], more than 5.33 µM; in experiment [6], more than 5.53 µM. In addition, the TGI in [7] was more than 30.4 µM.
Turning to `COC(CO[Si](C)(C)N[Si](C)(C)OCC(OC)c1ccccc1)c1ccccc1` (stereo not given), the TGI in [1], in experiment [3], in [9], in experiment [10], in [4] and in experiment [5] was more than 100 µM throughout. Besides, the TGI in experiment [6], in experiment [7] and in experiment [8] was more than 100 µM each time.
As to `O=C(O)CC(Cc1ccccc1)C(=O)O` (stereo not given), the TGI in [1], in experiment [3], in experiment [9], in [10], in experiment [4] and in [5] was more than 100 µM throughout. Moreover, the TGI in experiment [6], in experiment [7] and in experiment [8] was more than 100 µM in each case.
On to `COc1ccc(/C=N/N=C(N)N)c(C(=O)O)c1OC`, for which the TGI in experiment [10], in [4], in experiment [6], in experiment [7] and in experiment [8] was more than 100 µM each time.
As to `CC12CCC3=C(CSC4=C3CSc3ccccc34)C1=CCCC2=O` (stereo not given), the TGI in experiment [9], in [10], in experiment [5], in experiment [6] and in [8] was more than 100 µM in each case.
On to `CC(C)OCC(O)COc1cc(=O)oc2ccccc12` (stereo not given), for which the TGI in [1], in experiment [2], in experiment [3], in experiment [4], in [5] and in experiment [6] was more than 100 µM throughout. Also, the TGI in [7] and in [8] was more than 100 µM each time.
With `S=c1sc2ccccc2n1CN1CCN(Cc2ccccc2)CC1`, the TGI in experiment [1], in [9], in experiment [10], in [4], in experiment [5] and in experiment [7] was more than 100 µM in each case. Besides, the TGI in experiment [8] is more than 100 µM.
As to `CC(C)CC(NC(=O)C(CCC(=O)OCc1ccccc1)NC(=O)OC(C)(C)C)C(=O)NC(COCc1ccccc1)C(=O)NC(Cc1ccccc1)C(=O)O` (stereo not given) (Boc-E(OBn)LS(Bn)F-OH; configuration not given here), the TGI in experiment [2], in [3], in [9], in experiment [10], in experiment [5] and in [6] was more than 100 µM each time. Also, in experiment [8], the TGI is more than 100 µM.
Take `CSc1nc(NC2CC2)c2c(n1)Sc1nc3ccccc3n1N=C2`: the TGI was 46.1 µM in experiment [1]; 48.9 µM in [2]; more than 100 µM in experiment [3]; 54.6 µM in experiment [9]; 82.4 µM in experiment [5]; more than 100 µM in experiment [6]. The values for the TGI in [7] and in experiment [8] were 45.9 µM and 72.5 µM, respectively.
In the case of `C=CCCCN1C(=O)C2C3c4ccccc4C(C=O)(c4ccccc43)C2C1=O` (stereo not given), the TGI in [1] was 26.1 µM; in experiment [2] it was 23.5 µM; in [3], 27.9 µM; in experiment [4], 26.1 µM; in [5] it was 59.5 µM; in experiment [6], 31.9 µM. The TGI in experiment [7] amounted to 60.3 µM; in experiment [8] it was 32.1 µM.
As to `O=C(/C=C/c1ccccc1O)CC(=O)/C=C/c1ccccc1O`, the TGI in experiment [1] was more than 31.6 µM; in experiment [3] it was 13.3 µM; in [10] it was 9.06 µM; in experiment [4], more than 31.6 µM; in [5], 17 µM; in experiment [6], more than 31.6 µM. Further, in experiment [8], the TGI worked out at 22.9 µM.
With `CC(=O)Nc1ccc(S(=O)(=O)/N=c2/sc(S(N)(=O)=O)nn2C)cc1`, the TGI in experiment [1], in experiment [2], in experiment [9], in experiment [10], in experiment [4] and in experiment [5] was more than 100 µM in each case. In addition, the TGI in [6], in [7] and in experiment [8] was more than 100 µM each time.
Consider `c1ccc2c(c1)N=c1ccccc1=P21c2ccccc2Nc2ccccc21`, for which the TGI was found to be 10.5 µM in experiment [1]; 4.07 µM in experiment [3]; 3.65 µM in experiment [9]; 1.89 µM in experiment [10]; 7.64 µM in experiment [4]; 0.923 µM in experiment [5]. Moreover, the TGI in experiment [6] turned out to be 11.7 µM; in [7] it was 5.82 µM; in experiment [8], 7.26 µM.
